# Test results as given in ChEMBL document CHEMBL3507680, “University of Dundee, Gates Library screen for HepG2 cell viability”.
# Experiment: Human HepG2 cell viability assay in 384 well format
# Type: toxicity, cell-based
# Set-up: dose 125 nL, time 70.5 hour; cytotoxicity at 70.5 h: concentration not given beside the values
# Conditions: HepG2 cells, read-out: Inhibition
row,Structure (SMILES),cytotoxicity at 70.5 h [%]
1,CCOc1cccc(NS(=O)(=O)c2cc(C)c(C(=O)O)s2)c1,8.89
2,Cn1cc(CN2CCc3nc(-c4ccccn4)nc(O)c3C2)cn1,22.4
3,Cc1nc(NC(C)C)nc2c1CN(Cc1nccn1C)CC2,0.21
4,CN(CCCc1cnn(C)c1)c1nccc(-c2cc(C(=O)O)ccn2)n1,-5.12
5,CC(CN(C)C)Nc1nc(O)cc(Cc2ccccc2F)n1 (stereo unspecified),4.28
6,O=C(c1ccsc1)N1CCCC(c2cc(C(F)(F)F)[nH]n2)C1 (stereo unspecified),11.1
7,Cc1ccccc1C(C#N)NC(=O)CCCOc1cccnc1 (stereo unspecified),-0.163
8,COc1ccc(CC2(CO)CCN(c3cc(C#N)ccn3)CC2)cc1,-3.42
9,CNC(=O)COC1COC2(CCN(c3cnccn3)CC2)C1 (stereo unspecified),4.72
10,Cn1ncc2c1C(COCC1CC1)CN(CC1CC1)C2 (stereo unspecified),-6.33
11,COCCOCCCNC(=O)c1cc(Cl)cc2cccnc12,-18.1
12,COCCN(Cc1sccc1C)C(=O)COc1ccccc1O,-4.7
13,N#Cc1ccccc1N1CCCN(C(=O)CCc2ccsc2)CC1,1.39
14,CCS(=O)(=O)NCCNC(=O)N(Cc1ccc(C)o1)C(C)C,-13.2
15,OC1(CN2CCCC(Cn3cncn3)C2)CCCCC1 (stereo unspecified),6.45
16,O=C(c1cccnc1)N1CCc2c(COCC3CC3)cncc2C1,-2.77
17,CCC(CO)N(Cc1cccc(-n2cccn2)c1)Cc1cccs1 (stereo unspecified),-4.44
18,C[C@@H]1CN(CC(C)(C)N2CCCCC2)C[C@@]1(O)C1CC1,-1.88
19,O=C(Nc1cccc(N2CCCC2)c1)N[C@H](CCO)c1ccccc1,2.92
20,CN(C)c1nc(N)nc(CSCCC(=O)Nc2cccc(Cl)c2)n1,19.2
21,CCN1CCC2(CCC1=O)CN(C1CCOCC1)CCN2C (stereo unspecified),-6.68
22,COc1ccc2nc3n(c2c1)[C@@H](CNC(=O)c1cncnc1)COC3,-2.36
23,CN1C(=O)[C@H]2CC[C@@H]1CN(Cc1cccc(OCc3ccccn3)c1)C2,-11.5
24,Cc1nc(CN2C(=O)CCC23CCN(Cc2ccoc2)CC3)cs1,-4.67

row,Structure (SMILES),cytotoxicity at 70.5 h [%]
1,CC(=O)N(Cc1ncc(C)o1)C1CCN(Cc2ccon2)C1 (stereo unspecified),22.2
2,CC(C)c1nc(-c2ccc(=O)[nH]n2)n(-c2ccc3c(c2)OCO3)n1,-10.3
3,Cc1ccc(C)c(OC2CCN(C(=O)c3ccc(C)[nH]c3=O)CC2)c1,-11
4,CN(C)[C@@H]1CCN(S(=O)(=O)c2cn(C)cn2)[C@H]1Cc1cccnc1,-2.89
5,Cc1ccc(C(=O)NCc2cccnc2-n2cncn2)cc1S(C)(=O)=O,17.5
6,CC(C)(C)c1n[nH]c(C2CN(CCNC3CCCCC3)CCO2)n1 (stereo unspecified),-1.09
7,CS(=O)(=O)CCCNC1(c2cccc(Cl)c2)CCCC1,-5.23
8,O=C1COc2ccc(S(=O)(=O)N3CCOCC3)c3c2N1CCC3,35.1
9,Cn1cnnc1C1CCCN(C(=O)c2cc(Cl)cc(Cl)c2)C1 (stereo unspecified),-8.15
10,N#CC1(C(=O)N2C[C@H]3CC[C@@H]2CN(Cc2cscn2)C3)CCOCC1,15.7
11,COCCc1noc(C2CCN(C(=O)Nc3cccs3)CC2)n1,-4.24
12,CN1CCN(C(=O)c2cccn2C)Cc2cccnc21,-4.65
13,CN(Cc1ccccc1CN1CCCC1)c1ncnc2[nH]ccc12,-4.3
14,Cc1ncc(CN(C)Cn2nc(-c3ccccc3)oc2=O)s1,-13.1
15,O=C(c1cccnc1)N1CCC(c2nc(O)cc(-c3ccncc3)n2)C1 (stereo unspecified),-10.5
16,c1cc(C2CCCN2Cc2nnnn2C2CC2)cs1 (stereo unspecified),-8.27
17,O=C(NCCC1CCN(CC(F)(F)F)CC1)C1CCCOC1 (stereo unspecified),3.94
18,CCNC(c1ccc(OC)cc1)c1cccnc1 (stereo unspecified),-8.14
19,N#CCCCOc1cccc(CN2CCCC2c2ccc[nH]2)c1 (stereo unspecified),1.38
20,Cc1nn(C2CCCC2)c2nc(C(C)(C)CN3CCN(C)CC3)[nH]c12,-2.47
21,O=C1OCCN1CCS(=O)(=O)c1cccc(Cl)c1,-5.19
22,CCc1ccc(CNC(=O)c2ccc(N3CCOC3=O)cc2)s1,20.2
23,C[C@@H]1CN(C(=O)Cn2ccc3ncccc3c2=O)C[C@H](C)O1,-5.8
24,CCn1nnc2c1C(COC)CN(C(=O)COc1ccccc1)C2 (stereo unspecified),0.105

row,Structure (SMILES),cytotoxicity at 70.5 h [%]
1,COc1ccc(N2CCN(C(=O)COc3nccc(C)n3)CC2)cc1,-3.87
2,COCCn1ccc(NC(=O)Nc2ccc(C)cc2)n1,-5.81
3,Cc1ccc(C(=O)N2CCN(CCCSCC#N)CC2)cc1F,-7.64
4,O=C(NCC1(O)CCOC1)NCC1(c2ccccc2Cl)CC1 (stereo unspecified),-2.47
5,CCN(Cc1cccc(NC(=O)COC)c1)C(C)=O,27.5
6,c1cnnc(N2CCCC(NCc3cccc4c3OCO4)C2)c1 (stereo unspecified),1.39
7,Cc1cccc(CNC2CC(=O)N(CCc3cccc(Cl)c3)C2)n1 (stereo unspecified),-8.39
8,COC(C)c1cccc(NCc2cccs2)c1 (stereo unspecified),-3.58
9,CCS(=O)(=O)N1CCc2ccc(NC(=O)Nc3ccccc3C)cc21,-11
10,Cn1c2c(c(=O)n1C)CN(C(=O)c1cnccn1)CCC2,-8.23
11,CN(CCC(O)c1ccccc1)Cc1ccccc1C#N (stereo unspecified),-5.67
12,Cc1ccc(CN(C)C(=O)Cn2nc(-c3ccc(F)cc3)oc2=O)cc1,-7.04
13,Cc1ccc2c(c1)c(CNC(C)Cn1ccnc1)nn2C (stereo unspecified),-5.3
14,CN(CCCC1CCCO1)C(=O)c1cccc(C#N)c1 (stereo unspecified),-5.92
15,Cc1nc(NC2CCCC2)cc(C2CCN2C(=O)c2cnn(C)c2)n1 (stereo unspecified),-3.93
16,Cc1noc(CN2CCC(c3ccnn3CCO)CC2)n1,-13.4
17,CC(C)CCc1n[nH]c(C(=O)O)c1I,-8.29
18,COc1cccc(C(O)CN2CCN(c3cccc(C)c3)CC2)c1 (stereo unspecified),0.851
19,Cc1n[nH]/c(=N\C(=O)c2c3c(nc4onc(C)c24)CCC3)s1,-13.7
20,O=c1[nH]c2ncccc2n1C1CCCC1,-0.61
21,O=C(CN1C(=O)CCC1=O)NCc1cc(C2CC2)n(C2CCCC2)n1,-2.61
22,NC(=O)CCn1cc(CNCc2csc(N)n2)c2ccccc21,-2.33
23,CCc1nnc(CS(=O)(=O)c2ccc(C)cc2)n1C,-0.707
24,COc1ccc(C2=CCN(C(=O)C3CCCN(C(N)=O)C3)CC2)cc1 (stereo unspecified),-6.51

row,Structure (SMILES),cytotoxicity at 70.5 h [%]
1,CCN1CC(C(=O)NCc2ccnc(-n3ccnc3C)c2)CC1=O (stereo unspecified),-1.78
2,CCCc1nc(N(C)Cc2cnc(NC)nc2)c2cnn(C)c2n1,8.94
3,CN(C)Cc1nc2c(o1)CN(S(=O)(=O)c1cccs1)C2,-9.46
4,CN(c1ccc(F)c(F)c1)S(=O)(=O)c1cc(C(=O)O)cs1,-6.55
5,COc1c(C2CCCN2Cc2nccn2C)c(C)nn1C (stereo unspecified),2.44
6,C=C(C)COc1cccc(C(=O)N2CCC3(CCOCC3)CC2)c1,3.55
7,COCC1COCCC12CCN(S(=O)(=O)c1ccccc1C)CC2 (stereo unspecified),7.67
8,Cc1nn(C)c(Cl)c1C1CCCN1Cc1ccccn1 (stereo unspecified),-7.44
9,Cc1nnc(SCC(=O)NCc2ccc3c(c2)CCC(=O)N3)s1,2.74
10,CCOCC(O)CN1CCN(C(=O)c2ccc(N(C)C)nc2)CC1 (stereo unspecified),1.39
11,CC(C)C(=O)NCCc1cc2nc(-c3ccncc3)ccn2n1,-6.71
12,Cc1ccccc1C1(C(=O)NCCN2CCCC2)CCOCC1,-13.9
13,CCN(C(=O)CCc1ccc2[nH]ccc2c1)C1CC(=O)NC1=O (stereo unspecified),-2.25
14,O=C(CN(Cc1cccs1)C1CCS(=O)(=O)C1)NCCc1cccs1 (stereo unspecified),-2.26
15,CC(CNC(=O)c1cnccn1)Oc1cccc(Br)c1 (stereo unspecified),12.9
16,Cc1nc(CN2CCN(CC(=O)Nc3c(C)cccc3C)CC2)no1,-5.01
17,Cn1ccnc1-c1ccc(NCC2COCCO2)nn1 (stereo unspecified),-5.53
18,O=C(NCC1CCCN1CCc1ccccc1)NCC1(O)CCC1 (stereo unspecified),-9.32
19,Cc1cc(C)n(CC(=O)Nc2cc(-c3ccncc3)[nH]n2)n1,-4.82
20,CCn1cc(CN(C)C(=O)C(c2ccccc2C)N(C)C)cn1 (stereo unspecified),-1.5
21,Cc1nc(Cn2c3c(ccc2=O)CC(NC(N)=O)CC3)cs1 (stereo unspecified),5.59
22,NC(=O)N1CCc2ncc(CNC(=O)CC3CC3)n2CC1,1.82
23,CCS(=O)(=O)N(C)C1CCN(C(=O)c2cc(C)cc(C)c2)CC1,-14.2
24,COc1c(C2CCCN2C(=O)c2ccc(C#N)c(C)n2)c(C)nn1C (stereo unspecified),-8.97

row,Structure (SMILES),cytotoxicity at 70.5 h [%]
1,COc1ccccc1N1CCN(C(=O)CCn2ccnc2C)CC1(C)C,21.5
2,Cc1ccc(O)c(CNCC2CCCN2c2cccnn2)n1 (stereo unspecified),-11.5
3,CCn1c(-c2ccccc2)nn(CC(=O)NCCc2ccc(C)s2)c1=O,13.9
4,Cc1sc(N)nc1-c1ccc(Cl)cc1,15.4
5,CCn1c(SCC(N)=O)nnc1C(C)NC(=O)c1ccc(Cl)cc1 (stereo unspecified),17.8
6,CCN(C)S(=O)(=O)N1CCCC(CO)(CC=C(C)C)C1 (stereo unspecified),-2.99
7,Cn1cnnc1C1CCCN(C(=O)COCc2ccccc2)C1 (stereo unspecified),-2.8
8,C=C/C=c1\c(=C/C)oc2c(NCc3ccccc3)nc(CC)nc12,11.2
9,c1ccc2oc(N3CCCC4(CCOC4)C3)nc2c1 (stereo unspecified),-5.71
10,COCC1c2c(cnn2C)CCN1Cc1ccc(C)o1 (stereo unspecified),-18.3
11,Cn1nc(-c2ccccc2)c(Br)c1C(=O)O,-23.2
12,c1cc(CN2CCc3c(nnn3CC3CC3)C2COCC2CC2)co1 (stereo unspecified),-14
13,F[C@@H]1CN(CC2CC2)C[C@@H]1OCc1nc2cnccc2[nH]1,-0.16
14,CC(C)=CCNC1CCCN(c2ccc(C)nn2)C1 (stereo unspecified),-1.28
15,CN(Cc1nnc2n1CCC2)C(=O)c1ccc2c(c1)OCCCO2,18.9
16,CCOC[C@H]1CC[C@H]2[C@H](CCN2Cc2c(C)noc2C)O1,-3.26
17,CC(C)c1cc(C(=O)NCc2nc(-c3ccc(F)cc3)n[nH]2)n[nH]1,12.6
18,Cn1cccc1C(=O)N1CCC(c2nnc(Cn3ccnc3)n2C)CC1,-5.24
19,Cn1nc(CN2CCOCC2)c2c1CN(C(=O)c1ccc[nH]1)C2,0.563
20,NC(=O)N1CCC2(CCN(Cc3cccc(F)c3)CC2)CC1,-7.24
